This note sets out measurements from patent US11414419B2, “Substituted purines for the treatment of neurodegenerative and mitochondrial diseases” (Mitokinin, Inc., priority 2017, dated 2022).

By Cmax is commonly meant the highest concentration seen after dosing. As usually defined, the half-life is the time needed for the level to fall by half in the phase considered. High values mean slow decline, low ones rapid decline. By MRT inf is commonly meant the average time that molecules of a dose stay in the body. One may read the Tmax as the time at which the peak concentration occurs. As a reminder, the AUC(0-inf) is the area under the concentration-time curve extrapolated to infinity. A word on the AUC(0-t): it is the area under the concentration-time curve up to a stated or last time point. The low end stands for less exposure, the high end for more exposure.

Data set [1] has as its target T1, PINK1 (Homo sapiens, UniProt Q9BXM7).
T1 construct: expressed in transfected cells; host or cells: HeLa cells, retroviral transduction; they also stably express FRB-Fis1, mt-mKeima and Parkin
The data set is described as follows: PINK1-specific mitophagy assay (FACS for lysosomal-positive mt-mKeima). Type of data set: cell-based. The source says: mt-mKeima was cloned into a pCHAC-MCS-1-IRES-MCS2 vector. PINK1D110-YFP-23FKBP wild-type was cloned into pRetroQ-AcGFP-C1 at NheI/XhoI sites by Gibson assembly kit. The HA-tag was removed, and stop codon introduced. Wild-type HeLa cells stably expressing FRB-Fis1, mt-mKeima, Parkin, and wild-type PINK1D110-YFP-23FKBP were generated using retroviral transduction as described previously. Flag/HA-receptors were stably expressed in these cells by lentivirus transduction as described previously then treated with varying concentrations (see Table 2) of the experimental compounds for 5 days, followed by 1 uM rapalog for 24 h. Cells were then resuspended in sorting buffer (145 mM NaCl, 5 mM KCl, 1.8 mM CaCl2, 0.8 mM MgCl2, 10 mM HEPES, 10 mM glucose, 0.1% BSA) containing […] DAPI. Analysis was performed using Summit software (v6.2.6.16198) on a Beckman Coulter MoFlo Astrios cell sorter. Measurements of lysosomal mt-mKeima were made using dual-excitation ratiometric pH measurements at 488 (pH7) and 561 (pH4) nm lasers with 620/29 nm and 614/20 nm emission filters, respectively. For each sample, 50,000 events were collected and subsequently gated for YFP/mt-mKeima double-positive cells that were DAPI-negative. Data were analysed using FlowJo (v10, Tree Star).

Data set [2] in a line: in vivo. To be noted: rat; for Cmax / half-life / MRT inf / Tmax / AUC(0-inf) / AUC(0-t): male, SD; for half-life: HL_Lambda_z (T1/2); for MRT inf: MRTINF_pred; for AUC(0-inf): AUCINF_pred; for AUC(0-t): AUClast. As to the method: Compounds tested were as follows: kinetin (MW=215.21); MTK-115 (MW=243.26); MTK-115D (MW=219.29); MTK-125A (MW=217.27); and MTK-63A (MW=203.24). Formulation concentrations were 0.2 mg/mL for IV delivery; 0.5 mg/mL for PO delivery. Dosing was as follows: IV: 1 mg/kg, 5 mL/kg; PO: 5 mg/kg, 10 mL/kg. Results are as follows:
Compounds were prepared in a formulation of 4% DMSO, 15% Solutol HS 15, 81% PBS and then administered to male SD rats via oral gavage at 5 mg/kg (n=3 per compound). Plasma draws were taken at 15m, 30m, 1 hr, 2 hr, 4 hr, 8 hr, and 24 hrs, then analyzed by mass spectrometry for presence of the compound. Data were then plotted, and AUC values calculated.

The subject of data set [3] is Parkin-expressing HeLa cells with intact wt PINK1. Description: Cytotoxicity experiments (DAPI stain, FACS). Type of data set: cell-based. The note with it: 50 uM, 24 hrs, versus MTK-64, FIG. 6. As to the method: Compounds were incubated for 24 hrs at 50 uM in Parkin-expressing HeLa cells with intact wt PINK1. After 24 hrs, cells were DAPI stained according to standard protocols and assayed via FACS.

The mark [4] stands for this setting: rapalog + experimental compound 12.5 uM.
The mark [5] stands for this setting: rapalog + experimental compound 25 uM.
Setting [6] is: rapalog + experimental compound 50 uM.

T1 sequence (Q9BXM7 111-581 limits assumed): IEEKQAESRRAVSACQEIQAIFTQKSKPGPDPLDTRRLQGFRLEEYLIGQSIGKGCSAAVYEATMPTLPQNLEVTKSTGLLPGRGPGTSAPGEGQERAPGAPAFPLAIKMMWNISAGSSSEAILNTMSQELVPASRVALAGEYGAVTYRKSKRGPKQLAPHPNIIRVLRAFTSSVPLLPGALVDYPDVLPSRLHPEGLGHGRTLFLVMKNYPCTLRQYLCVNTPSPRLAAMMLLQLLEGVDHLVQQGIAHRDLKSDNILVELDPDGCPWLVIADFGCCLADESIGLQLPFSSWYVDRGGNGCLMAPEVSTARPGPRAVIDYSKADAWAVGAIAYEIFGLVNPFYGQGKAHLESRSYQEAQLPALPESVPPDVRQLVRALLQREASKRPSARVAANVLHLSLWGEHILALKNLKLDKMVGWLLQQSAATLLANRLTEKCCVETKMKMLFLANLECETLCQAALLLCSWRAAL

As to `Cc1nc(NCc2ccco2)c2nc(C)[nH]c2n1` [MTK-115], the “percentage of cells undergoing mitophagy” value in data set [1] (setting [4]) worked out at 13.4%. Besides, the “percentage of cells undergoing mitophagy” value in data set [1] (setting [5]) was 16%. The “percentage of cells undergoing mitophagy” value in data set [1] (setting [6]) stood at 18.4%. In data set [2] (iv, 1 mg/kg), this compound gave a Cmax of 1850 ng/mL, a half-life of 23.4 min and an MRT inf of 24.6 min. The Tmax in data set [2] (iv, 1 mg/kg, Tmax) came out at 4.8 min. In data set [2] (po, 5 mg/kg), this compound showed an area under the curve AUC(0-inf) of 5450 ng·h/mL, an area under the curve AUC(0-t) of 5300 ng·h/mL, a Cmax of 1040 ng/mL and a half-life of 69 min. This compound also yielded a mean residence time (MRT inf) in data set [2] (po, 5 mg/kg) of 203 min. Besides, in data set [2] (po, 5 mg/kg, Tmax), the Tmax was 240 min. The “toxicity versus mono-substituted comparator” value in data set [3] is listed as “substantial decrease in toxicity”.
In data set [2] (iv, 1 mg/kg), `c1coc(CNc2ncnc3[nH]cnc23)c1` [kinetin, reference compound] had an area under the curve AUC(0-inf) of 57 ng·h/mL, an AUC(0-t) of 56.8 ng·h/mL, a Cmax of 176 ng/mL and a half-life of 7.2 min. In data set [2] (iv, 1 mg/kg), this compound showed an MRT inf of 10.8 min. The Tmax in data set [2] (iv, 1 mg/kg, Tmax) came to 4.8 min. In data set [2] (po, 5 mg/kg), this compound had an AUC(0-inf) of 130 ng·h/mL, an AUC(0-t) of 122 ng·h/mL, a half-life of 64.8 min and an MRT inf of 79.2 min. The time to peak (Tmax) in data set [2] (po, 5 mg/kg, Tmax) worked out at 15 min.
In data set [2] (iv, 1 mg/kg), `C/C=C/CNc1nc(C)nc2[nH]cnc12` [MTK-63A] had a total exposure AUC(0-inf) of 360 ng·h/mL, an exposure AUC(0-t) of 359 ng·h/mL, a maximum concentration (Cmax) of 1140 ng/mL and a half-life of 7.8 min. Besides, in data set [2] (iv, 1 mg/kg), the mean residence time MRT inf stood at 10.2 min. For the same compound, the Tmax in data set [2] (iv, 1 mg/kg, Tmax) was found to be 4.8 min. In data set [2] (po, 5 mg/kg), the time to peak (Tmax) stood at 18 min, the AUC(0-inf) was 306 ng·h/mL, the area under the curve AUC(0-t) turned out to be 294 ng·h/mL and the Cmax was 305 ng/mL. In data set [2] (po, 5 mg/kg), this compound had a half-life of 97.8 min and a mean residence time (MRT inf) of 145 min. Also, in data set [2] (po, 5 mg/kg, Tmax), the time to peak (Tmax) turned out to be 15 min.
On to `C/C=C/CNc1nc(C)nc2[nH]c(C)nc12` [MTK-115A], for which the entries for the “percentage of cells undergoing mitophagy” value in data set [1] (setting [4]), in data set [1] (setting [5]) and in data set [1] (setting [6]) were 7.26%, 7.76% and 8.41%, respectively. Further, in data set [2] (po, 5 mg/kg), the maximum concentration (Cmax) was found to be 769 ng/mL. The compound further had an MRT inf in data set [2] (po, 5 mg/kg) of 175 min. Moreover, the “oral PK, AUC versus comparator” value in data set [2] (5 mg/kg) is given as “substantial increase in AUC”.
On to `CCCCNc1nc(C)nc2[nH]c(C)nc12` [MTK-115D], for which the “percentage of cells undergoing mitophagy” value in data set [1] (setting [4]) is given as 16.7%. Also, in data set [1] (setting [5]), the “percentage of cells undergoing mitophagy” value is 18.1%. Moreover, the “percentage of cells undergoing mitophagy” value in data set [1] (setting [6]) amounted to 18.6%. In addition, the “increase in activity (mitophagy)” value in data set [1] (versus MTX-63H (hydrogen instead of methyl at R3), FIG. 5) is recorded as about 40%. In data set [2] (iv, 1 mg/kg), this compound had a total exposure AUC(0-inf) of 470 ng·h/mL, an area under the curve AUC(0-t) of 469 ng·h/mL, a Cmax of 1440 ng/mL and a half-life of 7.2 min. Besides, in data set [2] (iv, 1 mg/kg), the MRT inf is 10.2 min. Also, in data set [2] (iv, 1 mg/kg, Tmax), the time of peak concentration (Tmax) was determined as 4.8 min. In data set [2] (po, 5 mg/kg), this compound had a half-life of 39.6 min and an MRT inf of 182 min.
